Data reported in paper PMC10946451, “Engineering a Carboxyl Methyltransferase for the Formation of a Furan‐Based Bioplastic Precursor” (Chemsuschem, 2023).

Target: T1, FtpM (WT FtpM) (Aspergillus fumigatus, UniProt Q4WZ45)
T1 construct: gene AFUA_3G15280; codon-optimised gene in pET-based golden gate vector, C-terminal His tag, expressed in E. coli, HisTrap purified; monomer and dimer modelled by AlphaFold 2
T1 sequence (Q4WZ45 1-282): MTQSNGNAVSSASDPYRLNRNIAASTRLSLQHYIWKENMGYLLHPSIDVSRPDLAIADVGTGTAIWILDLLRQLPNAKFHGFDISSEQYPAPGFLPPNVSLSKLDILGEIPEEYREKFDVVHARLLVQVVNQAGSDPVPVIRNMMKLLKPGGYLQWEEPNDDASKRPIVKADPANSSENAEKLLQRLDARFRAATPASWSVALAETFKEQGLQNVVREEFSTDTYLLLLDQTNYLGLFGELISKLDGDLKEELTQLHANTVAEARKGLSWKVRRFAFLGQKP
Assay: steady-state kinetics of carboxyl methylation (Michaelis-Menten; previously reported method)
Format: biochemical
Details: co-substrate SAM, kinetic assay conditions not printed (reactions: 50 mM MES pH 6.0, 25 °C)

SMILES	Km (first methylation)	Km (second methylation)
O=C(O)c1ccc(C(=O)O)o1 [compound 2, 2,5-furandicarboxylic acid]	520 µM	–
COC(=O)c1ccc(C(=O)O)o1 [compound 3, FMME]	–	1400 µM
